The pIC50 is the negative decadic logarithm of the IC50, by convention in mol/L.

Each structure is given as a SMILES string. pIC50: −log10 of the molar value.

In US9199946B2, “Pyrimidinone carboxamide inhibitors of endothelial lipase” (BRISTOL-MYERS SQUIBB COMPANY, priority 2012, dated 2015) one finds IC50 data, which are given here for 27 compounds.

The first assay concerns the target T1, Endothelial lipase (EL) (Homo sapiens, UniProt Q9Y5X9).
T1 construct: HT-1080 cells, which were transformed by RAGE technology (Athersys) to overexpress endogenous EL; endogenous in cells; conditioned medium used as the enzyme source
T1 sequence (Q9Y5X9 21-500): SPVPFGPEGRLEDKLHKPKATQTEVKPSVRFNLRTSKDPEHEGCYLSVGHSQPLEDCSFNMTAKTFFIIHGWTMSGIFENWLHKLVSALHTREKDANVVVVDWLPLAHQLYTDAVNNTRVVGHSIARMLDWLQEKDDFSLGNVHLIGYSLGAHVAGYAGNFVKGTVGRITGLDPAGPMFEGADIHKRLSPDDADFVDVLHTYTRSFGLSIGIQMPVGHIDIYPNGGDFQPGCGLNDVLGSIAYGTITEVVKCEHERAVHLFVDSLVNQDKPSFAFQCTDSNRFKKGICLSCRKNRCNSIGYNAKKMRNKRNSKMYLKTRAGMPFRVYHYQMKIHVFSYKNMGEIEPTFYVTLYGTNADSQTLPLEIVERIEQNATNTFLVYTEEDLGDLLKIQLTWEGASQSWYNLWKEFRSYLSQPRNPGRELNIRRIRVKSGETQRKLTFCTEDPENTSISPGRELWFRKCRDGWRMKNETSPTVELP
Nature of the assay: Endothelial lipase (EL) enzymatic assay with fluorescent substrate A10070 in DMPG vesicles. The format is biochemical. The settings on record: conditioned media from HT-1080 cells overexpressing endogenous EL; 20 min preincubation at 37° C.; read-out: EL IC50. The method in brief: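 EL activity was followed as a fluorescence rate (488/530 nm, reads every 20 s for 10 min, linear slope) on A10070 doped at 0.05 mole fraction into sonicated DMPG vesicles. Compound was first incubated 20 min at 37 °C, pH 8.0 HEPES/CaCl2 buffer, with conditioned media from EL-overexpressing HT-1080 cells.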
For the compound `O=C(N[C@H]1CCCc2ccccc21)c1[nH]c(=O)[nH]c(=O)c1OCCO` [Example 299, (S)-5-(2-Hydroxyethoxy)-2,6-dioxo-N-(1,2,3,4-tetrahydronaphthalen-1-yl)-1,2,3,6-tetrahydropyrimidine-4-carboxamide], the pIC50 was 5.02. Consider `Nc1c(C(=O)NC2CCCN(c3nccc(C(F)(F)F)n3)C2)[nH]c(=O)[nH]c1=O` (centres unmarked) [Example 184, 5-amino-2,6-dioxo-N-(1-(4-(trifluoromethyl)pyrimidin-2-yl)piperidin-3-yl)-1,2,3,6-tetrahydropyrimidine-4-carboxamide], for which the pIC50 was 5.24. For `Cn1nccc1-c1ccc([C@@H]2CC[C@H](NC(=O)c3[nH]c(=O)[nH]c(=O)c3N)C2)cc1` [Example 163, 5-amino-N-((1S,3R)-3-(4-(1-methyl-1H-pyrazol-5-yl)phenyl)cyclopentyl)-2,6-dioxo-1,2,3,6-tetrahydropyrimidine-4-carboxamide], the negative logarithm of the IC50 (pIC50) is 5.65. Still for that read-out and setting: as for `O=C(N[C@H]1CC[C@@H](c2ccccc2)CC1)c1[nH]c(=O)[nH]c(=O)c1NCCCn1ccnc1` [Example 216, 5-(3-(1H-imidazol-1-yl)propylamino)-2,6-dioxo-N-(cis-4-phenylcyclohexyl)-1,2,3,6-tetrahydropyrimidine-4-carboxamide], the figure is 5.46; as for `O=C(N[C@H]1CC[C@@H](c2ccccc2)CC1)c1[nH]c(=O)[nH]c(=O)c1NCc1ccccn1` [Example 225, 2,6-dioxo-N-(cis-4-phenylcyclohexyl)-5-(pyridin-2-ylmethylamino)-1,2,3,6-tetrahydropyrimidine-4-carboxamide], 5.28.

The assay is the same for the next values; noted with them: range observed in the EL assay; read-out: EL IC50 values.
In the case of `Nc1c(C(=O)N[C@@H]2CC[C@H](C(=O)Nc3ccccc3)C2)[nH]c(=O)[nH]c1=O` [Example 130, 5-amino-2,6-dioxo-N-((1R,3S)-3-(phenylcarbamoyl)cyclopentyl)-1,2,3,6-tetrahydropyrimidine-4-carboxamide], the negative logarithm of the IC50 (pIC50) is not below 5.00.

On to `O=C(N[C@H]1CCCc2ccccc21)c1[nH]c(=O)[nH]c(=O)c1OCCO` [Example 299, (S)-5-(2-Hydroxyethoxy)-2,6-dioxo-N-(1,2,3,4-tetrahydronaphthalen-1-yl)-1,2,3,6-tetrahydropyrimidine-4-carboxamide], for which the negative logarithm of the IC50 (pIC50) was not below 5.00. On the same count and under the same terms, in the case of `Nc1c(C(=O)N[C@H]2CC[C@@H](c3ccc(-c4cccc(CO)c4)cc3)C2)[nH]c(=O)[nH]c1=O` [Example 178, 5-amino-N-((1S,3R)-3-(3′-(hydroxymethyl)biphenyl-4-yl)cyclopentyl)-2,6-dioxo-1,2,3,6-tetrahydropyrimidine-4-carboxamide] it was not below 5.00. Still for that read-out and setting: as for `O=C(N[C@@H]1CC[C@@H](c2ccc(Cl)c(Cl)c2)C1)c1[nH]c(=O)[nH]c(=O)c1O` [Example 251, N-((1R,3R)-3-(3,4-dichlorophenyl)cyclopentyl)-5-hydroxy-2,6-dioxo-1,2,3,6-tetrahydropyrimidine-4-carboxamide], the figure is not below 5.00; as for `O=C(N[C@H]1CC[C@@H](c2ccccc2)CC1)c1[nH]c(=O)[nH]c(=O)c1NC1CCCc2ccccc21` (stereo partly drawn) [Example 224, 2,6-dioxo-N-(cis-4-phenylcyclohexyl)-5-(1,2,3,4-tetrahydronaphthalen-1-ylamino)-1,2,3,6-tetrahydropyrimidine-4-carboxamide], not below 5.00; as for `Nc1c(C(=O)N[C@@H]2CCCc3cc(Oc4ccccc4)ccc32)[nH]c(=O)[nH]c1=O` [Example 85, (R)-5-amino-2,6-dioxo-N-(6-phenoxy-1,2,3,4-tetrahydronaphthalen-1-yl)-1,2,3,6-tetrahydropyrimidine-4-carboxamide], not below 5.00.

Consider `Nc1c(C(=O)NC2CCC(c3ccccc3)CC2)[nH]c(=O)[nH]c1=O` (centres unmarked) [Example 2, 5-amino-2,6-dioxo-N-(4-phenylcyclohexyl)-1,2,3,6-tetrahydropyrimidine-4-carboxamide], for which the negative logarithm of the IC50 (pIC50) was not below 5.00. Same read-out and setting: in the case of `Nc1c(C(=O)NC2CCCN(c3nccc(C(F)(F)F)n3)C2)[nH]c(=O)[nH]c1=O` (centres unmarked) [Example 184, 5-amino-2,6-dioxo-N-(1-(4-(trifluoromethyl)pyrimidin-2-yl)piperidin-3-yl)-1,2,3,6-tetrahydropyrimidine-4-carboxamide] it was not below 5.00; in that of `COc1ccc([C@@H]2CC[C@@H](NC(=O)c3[nH]c(=O)[nH]c(=O)c3N)C2)cn1` [Example 80, 5-amino-N-((1R,3R)-3-(6-methoxypyridin-3-yl)cyclopentyl)-2,6-dioxo-1,2,3,6-tetrahydropyrimidine-4-carboxamide], not below 5.00.

Turning to `CC(CO)Nc1c(C(=O)N[C@H]2CC[C@@H](c3ccccc3)CC2)[nH]c(=O)[nH]c1=O` (stereo partly drawn) [Example 235, 5-(1-hydroxypropan-2-ylamino)-2,6-dioxo-N-(cis-4-phenylcyclohexyl)-1,2,3,6-tetrahydropyrimidine-4-carboxamide], the negative logarithm of the IC50 (pIC50) was not below 5.00.

For `Cn1nccc1-c1ccc([C@@H]2CC[C@H](NC(=O)c3[nH]c(=O)[nH]c(=O)c3N)C2)cc1` [Example 163, 5-amino-N-((1S,3R)-3-(4-(1-methyl-1H-pyrazol-5-yl)phenyl)cyclopentyl)-2,6-dioxo-1,2,3,6-tetrahydropyrimidine-4-carboxamide], the pIC50 was not below 5.00.

With `COc1ccc2c(c1)CCCC2NC(=O)c1[nH]c(=O)[nH]c(=O)c1N` (centres unmarked) [Example 31, 5-amino-N-(6-methoxy-1,2,3,4-tetrahydronaphthalen-1-yl)-2,6-dioxo-1,2,3,6-tetrahydropyrimidine-4-carboxamide], the pIC50 was not below 5.00. Still for that read-out and setting: in the case of `O=C(N[C@H]1CC[C@@H](c2ccccc2)CC1)c1[nH]c(=O)[nH]c(=O)c1NCCCn1ccnc1` [Example 216, 5-(3-(1H-imidazol-1-yl)propylamino)-2,6-dioxo-N-(cis-4-phenylcyclohexyl)-1,2,3,6-tetrahydropyrimidine-4-carboxamide] it was not below 5.00; in that of `Nc1c(C(=O)NC2CCC(c3cnn(Cc4ccccc4)c3)C2)[nH]c(=O)[nH]c1=O` (centres unmarked) [Example 102, 5-amino-N-(3-(1-benzyl-1H-pyrazol-4-yl)cyclopentyl)-2,6-dioxo-1,2,3,6-tetrahydropyrimidine-4-carboxamide], not below 5.00.

For `Nc1c(C(=O)NC2CCOc3ccccc32)[nH]c(=O)[nH]c1=O` (single isomer, unassigned; enantiomer b) [Example 197, 5-amino-N-(chroman-4-yl)-2,6-dioxo-1,2,3,6-tetrahydropyrimidine-4-carboxamide (Enantiomer B)], the pIC50 is not below 5.00. For `O=C(N[C@H]1CC[C@@H](c2ccccc2)CC1)c1[nH]c(=O)n(CCO)c(=O)c1O` [Example 269, 5-Hydroxy-1-(2-hydroxyethyl)-2,6-dioxo-N-(cis-4-phenylcyclohexyl)-1,2,3,6-tetrahydropyrimidine-4-carboxamide], the pIC50 is not below 5.00. On the same count and under the same terms, as for `Nc1c(C(=O)N[C@@H]2CC[C@@H](c3ccc(Cl)c(Cl)c3)C2)[nH]c(=O)[nH]c1=O` [Example 68, 5-amino-N-((1R,3R)-3-(3,4-dichlorophenyl)cyclopentyl)-2,6-dioxo-1,2,3,6-tetrahydropyrimidine-4-carboxamide], the figure is not below 5.00; as for `O=C(N[C@H]1CC[C@@H](c2ccccc2)CC1)c1[nH]c(=O)[nH]c(=O)c1NCc1ccccn1` [Example 225, 2,6-dioxo-N-(cis-4-phenylcyclohexyl)-5-(pyridin-2-ylmethylamino)-1,2,3,6-tetrahydropyrimidine-4-carboxamide], not below 5.00. Still for that read-out and setting: in the case of `Nc1c(C(=O)NC2CCC(c3cccc(OCc4ccccc4)c3)C2)[nH]c(=O)[nH]c1=O` (single isomer, unassigned) [Example 155, 5-amino-N-(3-(3-(benzyloxy)phenyl)cyclopentyl)-2,6-dioxo-1,2,3,6-tetrahydropyrimidine-4 carboxamide] it was not below 5.00. Same read-out and setting: in the case of `COc1ccc2c(c1)[C@@H](NC(=O)c1[nH]c(=O)[nH]c(=O)c1O)CCC2` [Example 265, (S)-5-hydroxy-N-(7-methoxy-1,2,3,4-tetrahydronaphthalen-1-yl)-2,6-dioxo-1,2,3,6-tetrahydropyrimidine-4-carboxamide] it was not below 5.00.

In the case of `Nc1c(C(=O)N[C@@H]2CC[C@@H](C(=O)NCc3nc4ccccc4s3)C2)[nH]c(=O)[nH]c1=O` [Example 148, 5-amino-N-((1R,3R)-3-(benzo[d]thiazol-2-ylmethylcarbamoyl)cyclopentyl)-2,6-dioxo-1,2,3,6-tetrahydropyrimidine-4-carboxamide], the negative-log IC50 (pIC50) was not below 5.00. With `Nc1c(C(=O)NC2CCCc3cc(OCC(F)(F)F)ccc32)[nH]c(=O)[nH]c1=O` (centres unmarked) [Example 22, 5-amino-2,6-dioxo-N-(6-(2,2,2-trifluoroethoxy)-1,2,3,4-tetrahydronaphthalen-1-yl)-1,2,3,6-tetrahydropyrimidine-4-carboxamide], the negative-log IC50 (pIC50) was not below 5.00. On the same count and under the same terms, as for `COc1cccc2c1C(NC(=O)c1[nH]c(=O)[nH]c(=O)c1N)CCC2` (centres unmarked) [Example 66, 5-amino-N-(8-methoxy-1,2,3,4-tetrahydronaphthalen-1-yl)-2,6-dioxo-1,2,3,6-tetrahydropyrimidine-4-carboxamide], the figure is not below 5.00; as for `O=C(N[C@H]1CC[C@H](c2ccccc2)C1)c1[nH]c(=O)[nH]c(=O)c1O` [Example 275, 5-hydroxy-2,6-dioxo-N-((1S,3S)-3-phenylcyclopentyl)-1,2,3,6-tetrahydropyrimidine-4-carboxamide], not below 5.00.

`O=C(N[C@H]1CC[C@@H](c2ccccc2)CC1)c1[nH]c(=O)[nH]c(=O)c1NCCCN1CCOCC1` [Example 219, 5-(3-morpholinopropylamino)-2,6-dioxo-N-(cis-4-phenylcyclohexyl)-1,2,3,6-tetrahydropyrimidine-4-carboxamide]: the pIC50 is not below 5.00. Still for that read-out and setting: as for `Nc1c(C(=O)N[C@H]2CC[C@@H](c3ccccc3)CC2)n(-c2ccc(Cl)c(Cl)c2)c(=O)[nH]c1=O` [Example 204, 5-amino-3-(3,4-dichlorophenyl)-2,6 dioxo-N-(cis-4-phenylcyclohexyl)-1,2,3,6-tetrahydropyrimidine-4-carboxamide], the figure is not below 5.00. Take `CC(C)(C)COc1ccc(C2CCC(NC(=O)c3[nH]c(=O)[nH]c(=O)c3O)C2)cc1` (centres unmarked) [Example 293, 5-hydroxy-N-(3-(4-(neopentyloxy)phenyl)cyclopentyl)-2,6-dioxo-1,2,3,6-tetrahydropyrimidine-4-carboxamide]: the pIC50 was not below 5.00.
